Test results as given in PMC7339578, “Multiple circulating alkaloids and saponins from intravenous Kang-Ai injection inhibit human cytochrome P450 and UDP-glucuronosyltransferase isozymes: potential drug–drug interactions” (Chinese Medicine, 2020).
Like-named read-outs stand apart in the source and are kept apart here. Each block holds one compound with its values, some of them ahead of it.

Tests used:
[1] = Urinary (renal) excretion in rats after a 30-min infusion of Kang-Ai injection; format: in vivo, Sprague–Dawley rats; settings: Kang-Ai injection 6 mL/kg iv; for CL renal: male, Sprague-Dawley, urine and plasma, rat, read-out: CLR (renal excretory clearance) (converted); for fe-U,0–12h (fraction of dose excreted into urine): rat urine 0–12 h
Summary of the method: (§1)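 Urine collected in metabolic cages at 0–4, 4–8, 8–12 h and bile at 0–3, 3–6, 6–9, 9–12 h after infusion start, weighed and frozen at −80 °C. Non-compartmental analysis; CLR and CLB as cumulative urinary or biliary amount divided by plasma AUC0-∞, fe-U and fe-B as cumulative amount/dose; mean ± SD (n = 3).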

CYP2C8 = target: T1, CYP2C8 (Homo sapiens, UniProt P10632); assay: Inhibition of recombinant CYP2C8 (probe paclitaxel); format: in vitro ADME; settings: for IC50: read-out: IC50 towards CYP2C8
T1 sequence (P10632 1-490): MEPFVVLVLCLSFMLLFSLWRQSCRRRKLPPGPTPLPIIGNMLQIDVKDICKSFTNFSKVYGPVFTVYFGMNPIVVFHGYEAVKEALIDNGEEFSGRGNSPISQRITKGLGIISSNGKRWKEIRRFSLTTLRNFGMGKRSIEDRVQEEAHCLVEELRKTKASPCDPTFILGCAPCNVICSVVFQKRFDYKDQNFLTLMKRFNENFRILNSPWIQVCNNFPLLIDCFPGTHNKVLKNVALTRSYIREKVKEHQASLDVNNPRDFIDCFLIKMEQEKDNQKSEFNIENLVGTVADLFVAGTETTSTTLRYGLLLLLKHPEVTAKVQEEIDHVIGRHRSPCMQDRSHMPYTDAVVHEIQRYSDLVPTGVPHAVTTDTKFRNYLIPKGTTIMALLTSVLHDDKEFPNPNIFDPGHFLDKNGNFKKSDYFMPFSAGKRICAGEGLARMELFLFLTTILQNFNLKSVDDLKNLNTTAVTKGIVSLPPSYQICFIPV
Method: (§2) In this study, phenacetin (100 μM), coumarin (100 μM), bupropion (100 μM), paclitaxel (60 μM), tolbutamide (200 μM), mephenytoin (100 μM), chlorzoxazone (200 μM) and nifedipine (40 μM) have been used as the probe substrates for CYP1A2, 2A6, 2B6, 2C8, 2C9, 2C19, 2E1 and 3A4, respectively.

[2] = Stability tests of analytes in rat plasma QC samples; format: in vitro ADME
Method: […] The dilution integrity was investigated by analyzing six replicate samples with each analyte, and each analyte were diluted 10-fold with blank rat matrix. Furthermore, the diluted samples were analyzed using freshly prepared calibration curve to calculate RE and RSD, which should be no more than ± 15% as criterion.

CYP2C9 = CYP2C9 (Homo sapiens, UniProt P11712); assay: Inhibition of recombinant CYP2C9 (probe tolbutamide); format: in vitro ADME; settings: recombinant isozyme, mean ± SD of triplicate, unit not given (IC50 classes in μM)
CYP2C9, sequence (P11712 whole entry): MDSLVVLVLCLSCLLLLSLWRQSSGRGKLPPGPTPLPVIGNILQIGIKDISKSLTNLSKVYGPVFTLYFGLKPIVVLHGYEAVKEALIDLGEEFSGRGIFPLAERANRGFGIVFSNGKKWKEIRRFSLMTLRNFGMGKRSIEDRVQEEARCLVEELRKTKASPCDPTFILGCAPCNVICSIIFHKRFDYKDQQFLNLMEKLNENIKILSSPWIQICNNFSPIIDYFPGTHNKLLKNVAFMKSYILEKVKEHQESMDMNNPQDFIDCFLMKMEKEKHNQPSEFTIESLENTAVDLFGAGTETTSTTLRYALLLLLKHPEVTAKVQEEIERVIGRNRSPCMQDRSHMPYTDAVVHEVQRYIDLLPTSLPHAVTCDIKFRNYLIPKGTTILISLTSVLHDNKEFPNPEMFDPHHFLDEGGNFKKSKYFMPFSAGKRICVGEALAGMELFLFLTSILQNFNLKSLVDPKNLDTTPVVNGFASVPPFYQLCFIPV
Method: as §2

[3] = Plasma pharmacokinetics in rats after a 30-min intravenous infusion of Kang-Ai injection; format: in vivo, Sprague–Dawley rats; settings: male, Sprague-Dawley, 30-min iv infusion of Kang-Ai injection 6 mL/kg; for clearance / Vd: plasma, rat, Table 1 unit; for clearance: read-out: CLtot, p (converted); for Vd: read-out: VSS; for Cmax / half-life: rat plasma; for Cmax: read-out: Cmax; for half-life: read-out: t1/2 (converted)
Summary of the method: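 Fasted male Sprague–Dawley rats (250 ± 20 g) got a single 30-min tail-vein infusion of Kang-Ai injection at 6 mL/kg. Jugular blood was sampled from 5 min to 12 h for plasma. Parameters came from non-compartmental analysis (trapezoidal AUC), n = 3.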

[4] = Biliary (hepatobiliary) excretion in rats after a 30-min infusion of Kang-Ai injection; format: in vivo, Sprague–Dawley rats; settings: Kang-Ai injection 6 mL/kg iv
Summary of the method: as §1

[5] = recombinant isozyme, mean ± SD of triplicate, unit not given (IC50 classes in μM)
[6] = rat plasma, nominal conc. 20 nM
[7] = rat plasma, nominal conc. 100 nM
[8] = rat plasma, nominal conc. 400 nM
[9] = rat plasma, nominal conc. 40 nM
[10] = rat plasma, nominal conc. 200 nM
[11] = rat plasma, nominal conc. 800 nM

Compound: CC(C)=CCC[C@](C)(O[C@@H]1O[C@H](CO[C@@H]2O[C@@H](CO)[C@H](O)[C@H]2O)[C@@H](O)[C@H](O)[C@H]1O)[C@H]1CC[C@]2(C)[C@@H]1[C@H](O)C[C@@H]1[C@@]3(C)CC[C@H](O[C@@H]4O[C@H](CO)[C@@H](O)[C@H](O)[C@H]4O[C@@H]4O[C@H](CO)[C@@H](O)[C@H](O)[C@H]4O)C(C)(C)[C@@H]3CC[C@]12C [Compound D3, Ginsenoside Rc]
CL renal [1]: 0.00967 mL/min | fe-U,0–12h (fraction of dose excreted into urine) [1]: 10.48 ± 1.31% | IC50 (CYP2C8; [5]): > 100 µM | At -80 °C for 48 h, Mean±SD [2, 6]: 21.79 ± 0.54 nM | At -80 °C for 48 h, RE [2, 6]: 11.90% | Extracted samples at 8 °C for 18 h, Mean±SD [2, 6]: 21.26 ± 0.64 nM | Extracted samples at 8 °C for 18 h, RE [2, 6]: 9.82% | Short-term stability at room temperature for 6 h, Mean±SD [2, 6]: 21.00 ± 1.54 nM | Short-term stability at room temperature for 6 h, RE [2, 6]: 10.56% | Three freeze-thaw cycles (-80 °C ↔ 23 °C), Mean±SD [2, 6]: 22.31 ± 0.31 nM | Three freeze-thaw cycles (-80 °C ↔ 23 °C), RE [2, 6]: 12.70% | At -80 °C for 48 h, Mean±SD [2, 7]: 92.14 ± 3.15 nM | At -80 °C for 48 h, RE [2, 7]: -10.73% | Extracted samples at 8 °C for 18 h, Mean±SD [2, 7]: 91.90 ± 3.48 nM | Extracted samples at 8 °C for 18 h, RE [2, 7]: -12.09% | Short-term stability at room temperature for 6 h, RE [2, 7]: -13.45% | Three freeze-thaw cycles (-80 °C ↔ 23 °C), Mean±SD [2, 7]: 107.11 ± 6.52 nM | Three freeze-thaw cycles (-80 °C ↔ 23 °C), RE [2, 7]: 11.88% | At -80 °C for 48 h, Mean±SD [2, 8]: 421.69 ± 7.21 nM | At -80 °C for 48 h, RE [2, 8]: 7.06% | Extracted samples at 8 °C for 18 h, Mean±SD [2, 8]: 432.26 ± 28.61 nM | Extracted samples at 8 °C for 18 h, RE [2, 8]: 12.97% | Short-term stability at room temperature for 6 h, Mean±SD [2, 8]: 366.80 ± 3.85 nM | Short-term stability at room temperature for 6 h, RE [2, 8]: -9.03% | Three freeze-thaw cycles (-80 °C ↔ 23 °C), Mean±SD [2, 8]: 413.15 ± 9.39 nM | Three freeze-thaw cycles (-80 °C ↔ 23 °C), RE [2, 8]: 5.12% | Short-term stability at room temperature for 6 h, Mean±SD ([2]; rat, 6 h, 100 nM): 94.62 ± 9.91 nM | IC50 towards CYP2C9 (CYP2C9): Activation | clearance [3]: 0.0933 mL/min | Vd [3]: 0.0378 ± 0.0102 L | Cmax [3]: 877 ± 39.5 nM | half-life [3]: 6.29 ± 3.17 h | detection in bile ([4]; rat bile): not detected in bile

CL renal [1]: 0.767 mL/min | fe-U,0–12h (fraction of dose excreted into urine) [1]: 29.54 ± 6.03% | fraction of dose excreted unchanged via renal plus hepatobiliary excretion (sum of fe-U and fe-B) ([1]; rat urine + bile, 0–12 h): ~60% | inhibition type (smallest AIC and SC) (CYP2C8; CYP2C8): mixed-type inhibition | Ki (CYP2C8; CYP2C8, competitive model): 8.2 ± 1.1 µM | Ki (CYP2C8; CYP2C8, mixed-type model): 13.3 ± 2.9 µM | α (CYP2C8; CYP2C8, mixed-type model): 4.2 ± 2.3 | Ki (CYP2C8; CYP2C8, noncompetitive model): 26.5 ± 2.2 µM | Cmax/Ki ([I]/Ki) (CYP2C8; CYP2C8, selected model, rat plasma Cmax): 0.1 | IC50 (CYP2C8; paclitaxel 60 μM): 24 µM | IC50 (CYP2C8; [5]): 24 ± 10.7 µM | At -80 °C for 48 h, Mean±SD [2, 9]: 37.07 ± 2.41 nM | At -80 °C for 48 h, RE [2, 9]: -12.37% | Extracted samples at 8 °C for 18 h, Mean±SD [2, 9]: 39.68 ± 3.10 nM | Extracted samples at 8 °C for 18 h, RE [2, 9]: -8.46% | Short-term stability at room temperature for 6 h, Mean±SD [2, 9]: 42.26 ± 4.77 nM | Short-term stability at room temperature for 6 h, RE [2, 9]: 12.91% | Three freeze-thaw cycles (-80 °C ↔ 23 °C), Mean±SD [2, 9]: 39.18 ± 1.53 nM | Three freeze-thaw cycles (-80 °C ↔ 23 °C), RE [2, 9]: -5.32% | At -80 °C for 48 h, Mean±SD [2, 10]: 181.77 ± 7.39 nM | At -80 °C for 48 h, RE [2, 10]: -12.74% | Extracted samples at 8 °C for 18 h, Mean±SD [2, 10]: 193.91 ± 26.18 nM | Extracted samples at 8 °C for 18 h, RE [2, 10]: -12.50% | Short-term stability at room temperature for 6 h, Mean±SD [2, 10]: 175.60 ± 2.61 nM | Short-term stability at room temperature for 6 h, RE [2, 10]: -13.13% | Three freeze-thaw cycles (-80 °C ↔ 23 °C), Mean±SD [2, 10]: 205.17 ± 19.51 nM | Three freeze-thaw cycles (-80 °C ↔ 23 °C), RE [2, 10]: 11.83% | At -80 °C for 48 h, Mean±SD [2, 11]: 836.79 ± 51.65 nM | At -80 °C for 48 h, RE [2, 11]: 10.56% | Extracted samples at 8 °C for 18 h, Mean±SD [2, 11]: 827.44 ± 80.86 nM | Extracted samples at 8 °C for 18 h, RE [2, 11]: 12.75% | Short-term stability at room temperature for 6 h, Mean±SD [2, 11]: 724.25 ± 14.79 nM | Short-term stability at room temperature for 6 h, RE [2, 11]: -11.32% | Three freeze-thaw cycles (-80 °C ↔ 23 °C), Mean±SD [2, 11]: 818.48 ± 84.93 nM | Three freeze-thaw cycles (-80 °C ↔ 23 °C), RE [2, 11]: 12.80% | IC50 (CYP2C9; read-out: IC50 towards CYP2C9): > 100 µM | clearance [3]: 2.61 mL/min | Vd [3]: 0.101 ± 0.027 L | Cmax [3]: 1340 ± 88.1 nM | half-life [3]: 1.07 ± 0.84 h | fe-B,0–12h (fraction of dose excreted into bile) ([4]; rat bile 0–12 h): 28.27 ± 4.16%
Compound: CC(C)=CCC[C@](C)(O[C@@H]1O[C@H](CO)[C@@H](O)[C@H](O)[C@H]1O)[C@H]1CC[C@]2(C)[C@@H]1[C@H](O)C[C@@H]1[C@@]3(C)CC[C@H](O)C(C)(C)[C@@H]3[C@@H](O[C@@H]3O[C@H](CO)[C@@H](O)[C@H](O)[C@H]3O[C@@H]3O[C@@H](C)[C@H](O)[C@@H](O)[C@H]3O)C[C@]12C [Compound C9, Ginsenoside Re]
